Assay results published in patent US6797726B1, “N-alkoxyalkyl-N,N-dialkylamine derivatives or salts thereof, and remedies for nerve degeneration diseases containing the same” (Toyama Chemical Co., Ltd., priority 1999, dated 2004).

Key:
ddY male mice = experiment: Anti-hypoxic activity; format: in vivo; details: 100 mg/kg orally, 30 minutes after administration, gas 4% oxygen / 96% nitrogen at 5 L/minute; for response vs control in vivo at 100 mg/kg: Mus musculus, po, 0.5 h, read-out: Anti-hypoxic activity: (survival time of mouse in administered group)÷(survival time of mouse in control group)×100
Experimental: A test compound (100 mg/kg) dissolved in distilled water is orally administered to ddY male mice of 5-6 weeks age (6-10 heads per group). Thirty minutes after the administration, each mouse was introduced into a glass vessel, and a gas mixture consisting of 4% of oxygen and 96% of nitrogen was passed through the glass vessel at a rate of 5 L/minute. The period of the time from the beginning of sending the gas to the death of the animal was measured.
To the control group, only distilled water was orally given. Anti-hypoxic activity of test compound was calculated according to the following equation:
(Survival time of mouse in administered group)÷(Survival time of mouse in control group)×100(%)

sciatic nerve = experiment: Nerve-regeneration promoting activity (crushed sciatic nerve); format: in vivo; details: 10 mg/kg intra-abdominally, 1 hour after crushing then twice per day for 5 days, SD rats, measured six days after operation
Experimental: The test was carried out according to the description of Experimental Neurology, Vol. 140, Page 198 (1996). SD rats (male, 6 weeks age, body weight 160-200 g) were anesthetized with Pentobarbital. The left sciatic nerve was exposed from the upper femoral muscular texture and peeled off from the surrounding texture, while taking care so as to give no injury to the muscular fiber. […] The crushed zone was marked with a thread at the end of neurilemma, and the operated portion was sutured. One hour after the crushing, a test compound dissolved in physiological salt solution was administered intra-abdominally at a dosage of 10 mg/kg. Thereafter, the same administration as above was repeated twice per day far 5 days. Six days after the operation, the operated portion was again opened under an anesthesia using Pentobarbital to expose the sciatic nerve, and a forceps was made to contact to the nerve from a position about 25 mm distant from the crushed part. The forceps was slowly moved toward the crushed part until a reflex reaction appeared. […] To the control group, only a saline was given. The sciatic nerve regeneration rate of the test compound was calculated according to the following equation: (Regeneration distance in administration group)÷(Regeneration distance in control group)×100(%)

[1] = tested on: cultured nerve cell death induced by Aβ; experiment: Activity of inhibiting the Aβ-induced nerve cell death (MTT assay); format: cell-based, Wistar rat; details: 0.1 μM; Aβ (25-35) 20 μmol/L; cultured rat embryo cerebral cortex nerve cells
Description: The effect of inhibiting the death of cultured nerve cell induced by Aβ was examined by a modification of the method described in Brain Research, Vol. 639, Page 240 (1994).
(§1) Cerebral cortex excised from the brain of an embryo of Wistar rat (embryonal age 17-19 days) was cut into small pieces and then treated with trypsin to dissociate the nerve cells. The cells were spread onto a 48-well tissue-culture plate at a rate of 1×10^5 cells per well, and cultured under a condition of 5% carbon dioxide, 37° C., in a Dulbecco modified Eagle medium to which B27 additives (product of GIBCO BRL) and 3.6 mg/mL glucose were added.
When the cultured had been continued for 12-13 days, a solution of potassium chloride was added so as to give a final concentration of 25 mmol/L, immediately after which a test agent was added. Twenty four hours after addition of the test agent, Aβ (25-35 peptide residues) dissolved in distilled water was added so as to give a final concentration of 20 μmol/L. Twenty four hours after addition of Aβ, the medium was changed to a medium prepared by adding test compound to Dulbecco modified Eagle medium to which B27 and 3.6 mg/mL glucose were added.
The inhibitory activity of test agent on the cultured nerve cell death was expressed by using the activity of inhibiting the decrease of MTT reducing ability as an index. That is, 48 hours after changing the medium, MTT assay developed by Mossmann [Journal of Immunological Methods, Vol. 65, Page 55 (1983)] was carried out, and the inhibition rate (%) of the agent on the decrease of MTT assay value induced by Aβ was calculated.
Inhibition rate=[(Aβ+MTT assay value of agent−added group)−(MTT assay value of Aβ−added group)]÷[MTT assay value of no addition group−MTT assay value of Aβ−added group]×100

[2] = tested on: cultured nerve cells death induced by HNE; experiment: Activity of inhibiting the HNE-induced nerve cell death (MTT assay); format: cell-based, Wistar rat; details: 0.1 μM; HNE 25 μmol/L; cultured rat embryo cerebral cortex nerve cells; 24 hours
Description: The protecting effect against the death of cultured nerve cells induced by HNE was examined by a modification of the method described in the Journal of Neuroscience, Vol. 17, Page 5089 (1997).
as §1, with “5×10^5” for “1×10^5”, “10% fetal calf serum” for “B27 additives (product of GIBCO BRL)”
In order to inhibit the proliferation of glia cells, cytosine arabinoside was added so as to give a final concentration of 10 μmol/L, from the day one after starting the culture. When the culture had been continued for 2 days, the medium was changed to a Dulbecco modified Eagle medium to which 10% fetal calf serum and 3.6 mg/mL glucose were added. When the culture had been continued for 7-8 days, a test agent was added, after which HNE was immediately added so as to give a final concentration of 25 μmol/L.
The inhibitory activity of an agent on the cultured nerve cell death was […] by using the inhibitory activity on the depression of MTT reducing ability as an index. That is, 24 hours after addition of a test agent, MTT assay [Journal of Immunological Methods, Vol. 65, Page 55 (1983)] developed by Mossmann was carried out, based on which inhibitory rate (%) of the agent on the decrease of MTT assay induced by HNE was calculated.
Inhibitory rate=[MTT assay value of (HNE+agent)−added group)−(MTT assay value of HNE−added group)]÷(MTT assay value of no addition group−MTT assay value of HNE−added group)]×100

[3] = tested on: nerve cell death caused by Aβ; details: Society for Neuroscience, Abstracts, Vol. 24, No. 1, Page 228 (1998); cited from earlier work
NGF = details: WO96/12717; cited from earlier work

| Molecule | Regeneration rate of sciatic nerve: (regeneration distance in administration group)÷(regeneration distance in control group)×100 (sciatic nerve) [%] | Inhibition rate on the decrease of MTT assay value induced by Aβ [1] [%] | Inhibitory rate on the decrease of MTT assay induced by HNE [2] [%] | response vs control in vivo at 100 mg/kg (ddY male mice) [%] | melting point [°C] | also measured |
| --- | --- | --- | --- | --- | --- | --- |
| CN(C)CCOCCc1ccc2sccc2c1.Cl [Example 16] | 115 |  |  |  |  | Anti-hypoxic activity: (survival time of mouse in administered group)÷(survival time of mouse in control group)×100 (ddY male mice): 158% |
| CN(CCO)CCOCCc1ccc2sccc2c1.O=C(O)C(=O)O [Example 68, 2-{[2-(2-Benzo[b]thiophen-5-ylethoxy)ethyl]-(methyl)amino}-1-ethanol oxalate] |  | 28 | 57 | 202 |  |  |
| CCN(CC)CCOCCc1ccc2sc(-c3ccccc3)cc2c1.Cl [Example 27, N,N-Diethyl-N-{2-[2-(2-phenylbenzo[b]-thiophen-5-yl)ethoxy]ethyl}-amine hydrochloride] | 126 |  |  |  | 131 to 138 |  |
| CCN(CC)CCOCCc1ccc2c(c1)CCC2.Cl [Example 105, N-{2-[2-(2,3-Dihydro-1H-inden-5-yl)ethoxy]ethyl}-N,N-diethylamine hydrochloride] |  |  | 31 |  | 104 to 105 |  |
| CCN(CC)CCOC[C@H](O)c1ccc2sccc2c1.Cl [Example T-588, (R)-1-(benzo[b]thiophen-5-yl)-2-[2-(N,N-diethylamino)ethoxy]ethanol hydrochloride] |  |  |  |  |  | Protective action on the nerve cell death caused by Aβ [3]: protective action; Activity of reinforcing the function of NGF (NGF): activity of reinforcing the function of NGF |
| CN(CCOCCc1ccc2sccc2c1)Cc1ccccc1.O=C(O)C(=O)O [Example 20, N-[2-(2-benzo[b]thiophen-5-ylethoxy)ethyl]-N-benzyl-N-methylamine oxalate] |  |  | 69 | 155 |  |  |
| 2-[[2-(3-Benzo[b]thiophen-5-ylpropyl)-ethyl](methyl)amino]-1-ethanol oxalate [Example 119] |  | 39 |  |  |  |  |
| CCN(CC)CCOCCc1ccc2sccc2c1.O=C(O)C(=O)O [Example 10] | 117 |  | 58 |  |  | Anti-hypoxic activity: (survival time of mouse in administered group)÷(survival time of mouse in control group)×100 (ddY male mice): 170% |
| CN(CCO)CCCOCCc1ccc2sccc2c1.O=C(O)C(=O)O [Example 76, 2-{[3-(2-benzo[b]thiophen-5-ylethoxy)propyl]-(methyl)amino}-1-ethanol oxalate] |  |  | 49 | 194 |  |  |
| CN(CCO)CCOCCc1c(F)cc2ccsc2c1F.Cl [Example 137, 2-[{2-[2-(5,7-Difluorobenzo[b]thiophen-6-yl)ethoxy]ethyl}(methyl)amino]-1-ethanol hydrochloride] |  | 37 |  |  | 95.5 to 97.5 |  |
